# In patent publication EP1561465A2, “Methods of use of fluoroquinolone compounds against bacteria” (LG Life Sciences, Ltd., priority 1999, dated 2001):
# Like-named read-outs stand apart in the source and are kept apart here.
# Assays:
# Assay type in all cases: cell-based
# Campylobacter jejuni = experiment: MIC by agar dilution (NCCLS M7-A4), 5% sheep blood, microaerophilic 48 h; conditions: Campylobacter jejuni (n=91)
# Aeromonas spp. = experiment: MIC by agar dilution (NCCLS M7-A4), 288 enteropathogenic isolates, gemifloxacin and 15 other antimicrobials; conditions: Aeromonas spp. N= 16
# Moraxella catarrhalis [1] = experiment: MIC by agar dilution (NCCLS), 411 isolates Buenos Aires 1998-99
# Hafnia alvei = experiment: MIC by agar dilution (NCCLS M7-A4), 288 enteropathogenic isolates, gemifloxacin and 15 other antimicrobials; conditions: Hafnia alvei N= 32
# Enterococcus faecium = experiment: MIC by NCCLS broth microdilution, 1100 Japanese clinical isolates 1997-1998; conditions: for MIC: Enterococcus faecium
# Moraxella catarrhalis [2] = experiment: MIC by two-fold serial agar dilution, Sensitivity Disk agar-N (Kitasato isolates); conditions: Moraxella catarrhalis (22)
# Streptococcus pneumoniae [3] = experiment: as above; conditions: Streptococcus pneumoniae; for MIC90: read-out: MIC90; for MIC: read-out: MIC Range; for MIC50: read-out: MIC50
# Moraxella catarrhalis [4] = experiment: MIC by NCCLS reference broth microdilution, 450 respiratory tract pathogens
# Streptococcus pneumoniae [5] = experiment: as above; conditions: Streptococcus pneumoniae
# Escherichia coli [6] = experiment: MIC by NCCLS broth microdilution, 1100 Japanese clinical isolates 1997-1998; conditions: for MIC50 / MIC90: Escherichia coli
# Haemophilus influenzae = experiment: MIC by agar dilution (NCCLS), 411 isolates Buenos Aires 1998-99; conditions: Haemophilus influenzae (n = 65)
# Enterobacter aerogenes = experiment: MIC by NCCLS broth microdilution, 1100 Japanese clinical isolates 1997-1998; conditions: Enterobacter aerogenes (n=35)
# Escherichia coli [7] = experiment: MIC by agar dilution (NCCLS), 322 nosocomial Gram negative isolates, Athens 1998; conditions: Escherichia coli; n = 57 isolates
# Acinetobacter spp. = experiment: as above; conditions: n = 38 strains
# [8] = 24 h, read-out: MIC (mg/L) Range
# [9] = Streptococcus pneumoniae (n = 100)
# [10] = erythromycin resistant M phenotype (n = 16)
# [11] = erythromycin resistant MLSB phenotype (n = 16)
# [12] = penicillin intermediate (n = 16)
# [13] = penicillin susceptible (n = 20)
# [14] = Escherichia coli ciprofloxacin resistant (n=5)
# [15] = Escherichia coli ciprofloxacin susceptible (n=37)
compound,measurement,setting,value
"C[C@H]1COc2c(N3CCN(C)CC3)c(F)cc3c(=O)c(C(=O)O)cn1c23 [Levofloxacin, levofloxacin]",% Susceptible,Campylobacter jejuni,31.86%
same,MIC50,Campylobacter jejuni,8 µg/mL
same,MIC90,Campylobacter jejuni,32 µg/mL
same,MIC Range,Campylobacter jejuni,0.06 to 128 µg/mL
same,MIC (mg/L) Range,Aeromonas spp.,≤0.015 to 0.06 mg/L
same,MIC,Aeromonas spp.; read-out: MIC (mg/L) 50%,≤ 0.015 mg/L
same,MIC,Aeromonas spp.; read-out: MIC (mg/L) 90%,≤ 0.015 mg/L
same,MIC Range,Moraxella catarrhalis [1]; Moraxella catarrhalis (n = 59),≤0.004 to 0.03 µg/mL
same,MIC90,"Moraxella catarrhalis [1]; Moraxella catarrhalis (n = 59), read-out: MIC90",0.03 µg/mL
same,MIC,Hafnia alvei; [8],0.015 to 0.03 mg/L
same,MIC,Hafnia alvei; read-out: MIC (mg/L) 50%,0.03 mg/L
same,MIC,Hafnia alvei; read-out: MIC (mg/L) 90%,0.03 mg/L
same,MIC50,Enterococcus faecium; Enterococcus faecium (n=39),32 µg/mL
same,MIC90,Enterococcus faecium; Enterococcus faecium (n=39),128 µg/mL
same,MIC,"Enterococcus faecium; Enterococcus faecium (vanA) vancomycin resistant, strain TMS1",64 µg/mL
same,MIC,"Enterococcus faecium; Enterococcus faecium (vanA) vancomycin resistant, strain TMS2",2 µg/mL
same,MIC,"Enterococcus faecium; Enterococcus faecium (vanA) vancomycin resistant, strain TMS3",32 µg/mL
same,MIC,"Enterococcus faecium; Enterococcus faecium (vanA) vancomycin resistant, strain TMS4",32 µg/mL
same,MIC,"Enterococcus faecium; Enterococcus faecium (vanA) vancomycin resistant, strain TMS5",4 µg/mL
same,MIC,"Enterococcus faecium; Enterococcus laecium (van B) vancomycin resistant, strain TMS6",32 µg/mL
same,MIC,"Enterococcus faecium; Enterococcus laecium (van B) vancomycin resistant, strain TMS7",32 µg/mL
same,MIC50,Moraxella catarrhalis [2],0.063 µg/mL
same,MIC90,Moraxella catarrhalis [2],0.063 µg/mL
same,MIC Range,Moraxella catarrhalis [2],0.031 to 0.063 µg/mL
same,MIC90,"Streptococcus pneumoniae [3]; 18 h, Ciprofloxacin-resistant (21), ciprofloxacin MIC ≥8 µg/ml",16 µg/mL
same,MIC,"Streptococcus pneumoniae [3]; 18 h, Ciprofloxacin-resistant (21)",2 to 32 µg/mL
same,MIC,"Streptococcus pneumoniae [3]; 18 h, Ciprofloxacin-susceptible (94)",0.25 to 2 µg/mL
same,MIC,"Streptococcus pneumoniae [3]; 18 h, Erythromycin-resistant (37)",0.5 to 16 µg/mL
same,MIC,"Streptococcus pneumoniae [3]; 18 h, Minocycline-resistant (37)",0.25 to 16 µg/mL
same,MIC,"Streptococcus pneumoniae [3]; 18 h, Penicillin-resistant (19)",0.5 to 8 µg/mL
same,MIC50,Streptococcus pneumoniae [3]; Ciprofloxacin-resistant (21),16 µg/mL
same,MIC50,Streptococcus pneumoniae [3]; Ciprofloxacin-susceptible (94),0.5 µg/mL
same,MIC90,Streptococcus pneumoniae [3]; Ciprofloxacin-susceptible (94),1 µg/mL
same,MIC50,Streptococcus pneumoniae [3]; Erythromycin-resistant (37),1 µg/mL
same,MIC90,Streptococcus pneumoniae [3]; Erythromycin-resistant (37),2 µg/mL
same,MIC50,Streptococcus pneumoniae [3]; Minocycline-resistant (37),1 µg/mL
same,MIC90,Streptococcus pneumoniae [3]; Minocycline-resistant (37),2 µg/mL
same,MIC50,Streptococcus pneumoniae [3]; Penicillin-resistant (19),0.5 µg/mL
same,MIC90,Streptococcus pneumoniae [3]; Penicillin-resistant (19),1 µg/mL
same,MIC,Moraxella catarrhalis [4]; Moraxella catarrhalis (n = 50),0.00375 to 0.03 µg/mL
same,MIC50,Moraxella catarrhalis [4]; Moraxella catarrhalis (n = 50),0.015 µg/mL
same,MIC90,Moraxella catarrhalis [4]; Moraxella catarrhalis (n = 50),0.03 µg/mL
same,MIC,Moraxella catarrhalis [4]; β-lactamase negative (n = 13),0.00375 to 0.03 µg/mL
same,MIC50,Moraxella catarrhalis [4]; β-lactamase negative (n = 13),0.03 µg/mL
same,MIC90,Moraxella catarrhalis [4]; β-lactamase negative (n = 13),0.03 µg/mL
same,MIC,Moraxella catarrhalis [4]; β-lactamase positive (n = 37),0.00375 to 0.03 µg/mL
same,MIC50,Moraxella catarrhalis [4]; β-lactamase positive (n = 37),0.015 µg/mL
same,MIC90,Moraxella catarrhalis [4]; β-lactamase positive (n = 37),0.03 µg/mL
same,MIC,Streptococcus pneumoniae [5]; [9],0.25 to 2 µg/mL
same,MIC50,Streptococcus pneumoniae [5]; [9],1 µg/mL
same,MIC90,Streptococcus pneumoniae [5]; [9],1 µg/mL
same,MIC,Streptococcus pneumoniae [5]; [10],1 to 2 µg/mL
same,MIC50,Streptococcus pneumoniae [5]; [10],1 µg/mL
same,MIC90,Streptococcus pneumoniae [5]; [10],1 µg/mL
same,MIC,Streptococcus pneumoniae [5]; [11],0.5 to 2 µg/mL
same,MIC50,Streptococcus pneumoniae [5]; [11],1 µg/mL
same,MIC90,Streptococcus pneumoniae [5]; [11],1 µg/mL
same,MIC,Streptococcus pneumoniae [5]; multi-drug resistant (n = 16),0.5 to 1 µg/mL
same,MIC50,Streptococcus pneumoniae [5]; multi-drug resistant (n = 16),1 µg/mL
same,MIC90,Streptococcus pneumoniae [5]; multi-drug resistant (n = 16),1 µg/mL
same,MIC,Streptococcus pneumoniae [5]; [12],0.5 to 1 µg/mL
same,MIC50,Streptococcus pneumoniae [5]; [12],1 µg/mL
same,MIC90,Streptococcus pneumoniae [5]; [12],1 µg/mL
same,MIC,Streptococcus pneumoniae [5]; penicillin resistant (n = 18),0.5 to 2 µg/mL
same,MIC50,Streptococcus pneumoniae [5]; penicillin resistant (n = 18),0.5 µg/mL
same,MIC90,Streptococcus pneumoniae [5]; penicillin resistant (n = 18),1 µg/mL
same,MIC,Streptococcus pneumoniae [5]; [13],0.25 to 1 µg/mL
same,MIC50,Streptococcus pneumoniae [5]; [13],1 µg/mL
same,MIC90,Streptococcus pneumoniae [5]; [13],1 µg/mL
same,MIC Range,Escherichia coli [6]; [14],4 to 128 µg/mL
same,MIC Range,Escherichia coli [6]; [15],≤0.008 to 0.25 µg/mL
same,MIC50,Escherichia coli [6]; [14],16 µg/mL
same,MIC90,"Escherichia coli [6]; Escherichia coli ciprofloxacin resistant (n=5), values marked *: MIC80 value",16 µg/mL
same,MIC50,Escherichia coli [6]; [15],0.032 µg/mL
same,MIC90,Escherichia coli [6]; [15],0.063 µg/mL
same,MIC90,Haemophilus influenzae,0.016 µg/mL
same,MIC Range,Haemophilus influenzae,≤0.004 to 0.25 µg/mL
same,MIC Range,Enterobacter aerogenes,0.016 to 0.25 µg/mL
same,MIC50,Enterobacter aerogenes; Klebsiella aerogenes,0.032 µg/mL
same,MIC90,Enterobacter aerogenes; Klebsiella aerogenes,0.063 µg/mL
"CC1COc2c(N3CCN(C)CC3)c(F)cc3c(=O)c(C(=O)O)cn1c23 (centres unmarked) [Ofloxacin, ofloxacin]",% Susceptible,Campylobacter jejuni,31.86%
same,MIC50,Campylobacter jejuni,16 µg/mL
same,MIC90,Campylobacter jejuni,32 µg/mL
same,MIC (mg/L) Range,Aeromonas spp.,≤0.015 to 0.12 mg/L
same,MIC,Aeromonas spp.; read-out: MIC (mg/L) 50%,≤ 0.015 mg/L
same,MIC,Aeromonas spp.; read-out: MIC (mg/L) 90%,0.03 mg/L
same,MIC90,Moraxella catarrhalis [1]; Moraxella catarrhalis,0.125 µg/mL
same,MIC Range,Moraxella catarrhalis [1]; Moraxella catarrhalis (n = 59),0.06 to 0.125 µg/mL
same,MIC,Hafnia alvei; [8],0.03 mg/L
same,MIC,Hafnia alvei; read-out: MIC (mg/L) 50%,0.03 mg/L
same,MIC,Hafnia alvei; read-out: MIC (mg/L) 90%,0.03 mg/L
same,MIC90,Haemophilus influenzae,0.06 µg/mL
same,MIC Range,Haemophilus influenzae,0.008 to 0.25 µg/mL
same,MIC50,Escherichia coli [7],0.06 µg/mL
same,MIC90,Escherichia coli [7],0.25 µg/mL
same,MIC50,Acinetobacter spp.; Acinetobacter,8 µg/mL
same,MIC90,Acinetobacter spp.; Acinetobacter,64 µg/mL
same,MIC Range,Acinetobacter spp.,0.125 to 64 µg/mL
